In US11513109B2, “Biological toxicity test method for evaluating the ecological safety of advanced oxidation processes” (priority 2018, dated 2022):

Tested on: Koi (Cyprinus carpio haematopterus)
Assay: Koi exposure toxicity test: liver homogenate antioxidative enzyme activity (SOD, CAT, GPx)
Assay type: in vivo
Conditions: experimental group 1 vs blank group
Procedure: Still further, four groups of identical experimental pools are established in S2. Each group of experimental pools is provided with 3 parallel groups. The size of each experimental pool is unified to 30 L. The water temperature of the experimental pool is 18° C. to 22° C. Each experimental pool is provided with an aerator. The first group of the experimental pools is the waste water control group, the second group is the waste water group, the third group is the tap water control group, and the fourth group is the tap water blank group. The four groups of experimental pools have same conditions except the addition of different water quality. 25 L of raw waste water, experimental waste water, control tap water, and blank tap water are sequentially added to the experimental pool of the waste water control group, the waste water experimental group, the tap water control group, and the […].
Still further, 20 selected Koi are put into each experimental pool in S3 for exposure to poison. The Koi used in the test are those domesticated with tap water and not poisoned by the contaminants. The duration of exposure is 96 h-110 h. During the period of exposure, half water is changed every day with water of same quality to maintain the water quality in a stable condition.
Further, the method in S4 is specifically: the Koi after exposure to poison in each group is dissected and liver is extracted, chopped, and formulated into a homogenate with the liver tissue and physiological saline according to weight (g): volume (mL)=1:9 and the activity of antioxidative enzymes in the homogenate is determined.
Still further, the antioxidative enzyme determined in S4 comprises superoxide dismutase, catalase, and glutathione peroxidase.
Still further, the biological indicators such as the determined enzyme activity described in S4 are determined using a kit, and 5 parallel group assays are set for each sample group.
S1: the waste water to be determined was collected (prepared), […]. […]

OO [H2O2]
produces oxidative stress: oxidative stress on the koi (SOD higher, GPx lower than blank group, not significant) (Example 1, oxidant in UV/H2O2) | oxidative stress on the Koi (SOD higher, GPx lower than blank group, not significant) (Example 3, oxidant in the ozone combined oxidation process) | oxidative stress on the Koi (SOD higher, GPx lower than blank group, not significant) (Example 4, oxidant in the wet oxidation process)
